Experimental data as given in ChEMBL document CHEMBL1201862, “PubChem BioAssay data set” (2004).
Values joined by “and” are separate entries in the source; they are usually repeats but may differ in a detail not shown here. Identical values can stand only once.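 The compound was tested at five concentrations on cells cultured in 96-well plates, with a 48-hour exposure period. GI50: concentration for 50% inhibition of growth.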 Active and inactive are the calls of the source. Rule as the data show it: active = GI50 up to about 1.1 µM and inactive = higher.

What was measured:
Assay in all cases: inhibition of tumour cell growth, NCI panel, 48 h
HOP-62 = tested on: HOP-62
IGROV-1 = tested on: IGROV-1
786-0 = tested on: 786-0
Hs-578T = tested on: Hs-578T
NCI-H460 = tested on: NCI-H460
OVCAR-8 = tested on: OVCAR-8
MOLT-4 = tested on: MOLT-4
KM12 = tested on: KM12
COLO 205 = tested on: COLO 205
UACC-62 = tested on: UACC-62
SNB-75 = tested on: SNB-75
DU-145 = tested on: DU-145
HCT-15 = tested on: HCT-15
SF-295 = tested on: SF-295
MCF7 = tested on: MCF7
CCRF-CEM = tested on: CCRF-CEM
SW-620 = tested on: SW-620
HT-29 = tested on: HT-29
MDA-MB-435 = tested on: MDA-MB-435
HOP-92 = tested on: HOP-92

Row | SMILES | GI50 (HOP-62) | GI50 (IGROV-1) | GI50 (786-0) | GI50 (Hs-578T) | GI50 (NCI-H460) | GI50 (OVCAR-8) | GI50 (MOLT-4) | GI50 (KM12) | GI50 (COLO 205) | GI50 (UACC-62) | GI50 (SNB-75) | GI50 (DU-145) | GI50 (HCT-15) [µM] | GI50 (SF-295) | GI50 (MCF7) | GI50 (CCRF-CEM) | GI50 (SW-620) | GI50 (HT-29) | GI50 (MDA-MB-435) | GI50 (HOP-92)
1 | Cc1cc(Oc2cnc(=O)[nH]c2)cs1 | > 100 µM (inactive) | > 100 µM (inactive) | > 100 µM (inactive) | > 100 µM (inactive) | > 100 µM (inactive) | > 100 µM (inactive) | > 100 µM (inactive) | > 100 µM (inactive) | > 100 µM (inactive) | > 100 µM (inactive) | > 100 µM (inactive) | > 100 µM (inactive) | > 100 | > 100 µM (inactive) | > 100 µM (inactive) | > 100 µM (inactive) | > 100 µM (inactive) | > 100 µM (inactive) | > 100 µM (inactive) | –
2 | FC(F)(F)c1nc2cc(SSc3cc4nc(C(F)(F)F)[nH]c4cc3Cl)c(Cl)cc2[nH]1 | > 100 µM (inactive) | > 100 µM (inactive) | > 100 µM (inactive) | > 100 µM (inactive) | > 100 µM (inactive) | > 100 µM (inactive) | > 100 µM (inactive) | – | 53.7 µM (inactive) | > 100 µM (inactive) | – | > 100 µM (inactive) | > 100 | > 100 µM (inactive) | 65.5 µM (inactive) | – | > 100 µM (inactive) | > 100 µM (inactive) | > 100 µM (inactive) | –
3 | CC1(C)OP(=O)(O)C=C1Sc1ccc([N+](=O)[O-])cc1[N+](=O)[O-] | > 100 µM (inactive) | > 100 µM (inactive) | > 100 µM (inactive) | > 100 µM (inactive) | > 100 µM (inactive) | > 100 µM (inactive) | – | > 100 µM (inactive) | > 100 µM (inactive) | > 100 µM (inactive) | > 100 µM (inactive) | > 100 µM (inactive) | > 100 | > 100 µM (inactive) | > 100 µM (inactive) | – | > 100 µM (inactive) | 45.7 µM (inactive) | > 100 µM (inactive) | > 100 µM (inactive)
4 | CCOC(=O)c1c(CN2CCOCC2)n(Cc2ccccc2)c2c1cc(O)c1nc(C)c(C)nc12 | 21.3 µM (inactive) | – | 27.7 µM (inactive) | 36.1 µM (inactive) | 42 µM (inactive) | 15.5 µM (inactive) | 71 µM (inactive) | > 100 µM (inactive) | 40 µM (inactive) | 38.7 µM (inactive) | 9.98 µM (inactive) | 78.2 µM (inactive) | 57 | 56.5 µM (inactive) | 16.7 µM (inactive) | > 100 µM (inactive) | > 100 µM (inactive) | > 100 µM (inactive) | > 100 µM (inactive) | –
5 | CC(=O)Nc1ccc2cc(C)c(O)nc2n1 | – | > 100 µM (inactive) | 52.1 µM (inactive) | 85.7 µM (inactive) | > 100 µM (inactive) | > 100 µM (inactive) | > 100 µM (inactive) | > 100 µM (inactive) | > 100 µM (inactive) | > 100 µM (inactive) | 43.7 µM (inactive) | > 100 µM (inactive) | > 100 | > 100 µM (inactive) | – | > 100 µM (inactive) | > 100 µM (inactive) | > 100 µM (inactive) | > 100 µM (inactive) | 54.2 µM (inactive)
6 | CC(=O)O[C@H]1CC2C(C3CC[C@H](C(C)CCC(N)=O)[C@]31C)[C@H](OC(C)=O)C[C@@H]1CC3(CC[C@]21C)OOC1(CCC(C)CC1)OO3 (some centres not stated) | – | – | 1.86 µM (inactive) and 1.77 µM (inactive) | 2.07 µM (inactive) and 2.38 µM (inactive) | 1.62 µM (inactive) and 2.28 µM (inactive) | 1.71 µM (inactive) and 1.47 µM (inactive) | 1.72 µM (inactive) and 1.47 µM (inactive) | 1.98 µM (inactive) and 1.83 µM (inactive) | 1.56 µM (inactive) | – | – | – | 1.93 | 2.99 µM (inactive) and 2 µM (inactive) | 2.04 µM (inactive) and 2.65 µM (inactive) | 1.52 µM (inactive) | 3.02 µM (inactive) and 2.11 µM (inactive) | 2.51 µM (inactive) and 1.54 µM (inactive) | 2.06 µM (inactive) and 1.61 µM (inactive) | 2.79 µM (inactive) and 1.65 µM (inactive)
7 | CCCOC(=O)C1C2CCC(O2)C1C(=O)O (configuration not stated) | > 100 µM (inactive) | > 100 µM (inactive) | > 100 µM (inactive) | > 100 µM (inactive) | – | > 100 µM (inactive) | > 100 µM (inactive) | > 100 µM (inactive) | > 100 µM (inactive) | > 100 µM (inactive) | 36.3 µM (inactive) | > 100 µM (inactive) | > 100 | > 100 µM (inactive) | > 100 µM (inactive) | > 100 µM (inactive) | > 100 µM (inactive) | > 100 µM (inactive) | > 100 µM (inactive) | –
